Results: the SangsterLogP compilation

Tests used:
[1] = method code SF-CR, from DOI: 10.3891/acta.chem.scand.05-0774
[2] = method code SF-TN, from DOI: 10.3891/acta.chem.scand.05-0774

Row | logP | SMILES | logP [2] | also measured
1 | – | COCOC | – | logP [1]: 0
2 | – | CC(Br)C(=O)O (centres undefined) | 0.92 | –
3 | – | CC(O)C(C)O (centres undefined) | – | logP [1]: -0.92
4 | – | O=C(O)CCCCCCCC(=O)O | 1.59 | –
5 | – | O=C(O)CC(O)C(=O)O (centres undefined) | -1.26 | –
6 | – | CC(C)(O)C(=O)O | -0.36 | –
7 | -1.31 | NCCO | – | –
8 | – | COC(C)=O | – | logP [1]: 0.18
9 | – | O=C(O)CBr | 0.41 | –
10 | -1.43 | OCCNCCO | – | –
11 | -1.17 | C1CNCCN1 | – | –
12 | – | CCC(Br)C(=O)O (centres undefined) | 1.42 | –
13 | -0.96 | CC(O)CN (centres undefined) | – | –
14 | -0.82 | CC(O)CNCC(C)O (centres undefined) | – | –
